Experimental data from publication PMC6995600, “Effects of Synergistic Inhibition on α-glucosidase by Phytoalexins in Soybeans” (Biomolecules, 2019).
Read-outs that look alike come from different tables or passages of the source.

Legend:
α-glucosidase = test system: α-glucosidase; design: method as in PMID 24083955; details: 2 μM; cited from earlier work
[1] = target: T1, α-Glucosidase (from baker’s yeast) (Saccharomyces cerevisiae, UniProt P53341); test: biochemical
T1 construct: purchased Sigma-Aldrich #63231-63-0
T1 sequence (P53341 whole entry): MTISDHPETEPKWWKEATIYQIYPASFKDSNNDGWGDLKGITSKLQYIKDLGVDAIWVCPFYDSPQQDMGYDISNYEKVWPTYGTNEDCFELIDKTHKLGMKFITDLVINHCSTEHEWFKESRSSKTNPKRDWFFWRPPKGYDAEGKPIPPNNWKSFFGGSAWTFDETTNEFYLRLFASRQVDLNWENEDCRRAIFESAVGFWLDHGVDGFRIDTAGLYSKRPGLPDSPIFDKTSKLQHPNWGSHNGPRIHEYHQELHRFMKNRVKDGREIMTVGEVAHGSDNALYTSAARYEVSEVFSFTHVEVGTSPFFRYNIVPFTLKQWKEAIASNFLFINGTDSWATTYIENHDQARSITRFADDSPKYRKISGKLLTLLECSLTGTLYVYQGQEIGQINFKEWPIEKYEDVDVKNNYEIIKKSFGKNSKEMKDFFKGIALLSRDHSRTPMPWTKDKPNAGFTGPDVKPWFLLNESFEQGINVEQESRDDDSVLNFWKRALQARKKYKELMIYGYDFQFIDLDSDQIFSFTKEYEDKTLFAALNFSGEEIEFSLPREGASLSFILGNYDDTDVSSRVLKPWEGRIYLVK
Method: The activity of α-glucosidase was measured as described previously, with slight modifications. In brief, sodium phosphate buffer (0.1 M) was adjusted to 0.1 N HCl to pH 7.0 with a pH meter (Thermo Fisher Scientific Inc., Waltham, MA, USA). Solutions of pNPG (10 mM) and α-glucosidase (1 U/mL) were solubilized in 0.1 M sodium phosphate buffer (pH 7.0). All reagents were prepared shortly before use and warmed to 37 °C in a water bath (Il-shin Biobase, Pocheon, Korea). […] The substrate, pNPG (N1377, Sigma), was added into each well to a final concentration of 1 mM in a total volume of 200 μL, and 100 μL of α-glucosidase (1 U/mL) per well was then added. […] The absorbance values were plotted against time, and the rate (velocity) of product generation (α-glucosidase activity) was calculated from the linear range of the graph.

[2] = target: T1, α-Glucosidase (from baker’s yeast); test: Enzyme kinetics for α-glucosidase (Michaelis–Menten, Lineweaver–Burk, Dixon plot); assay type: biochemical; details: for Mode of Inhibition: Lineweaver–Burk plots
Method: The enzyme reaction was performed according to the above reaction conditions with polyphenols at various concentrations (1–30 μM). pNPG (1 mM) was added with polyphenols in 96-well plates, and α-glucosidase (1 U/mL) was added to initiate the enzyme reaction. The absorbances for each concentration of pNPG were then obtained by spectrophotometry (Victor3, PerkinElmer, Waltham, MA, USA). The inhibition modes of the polyphenols were determined using Michaelis–Menten and Lineweaver–Burk equations [23, 24]. The inhibition constant Ki is an indication of the potency of an inhibitor and equals the concentration required to produce half-maximal inhibition and can be determined by a Dixon plot. […] The αKi value is the inhibitor constant when the inhibitor (I) occupies the enzyme–substrate (ES) complex.
To define the mode of inhibition of the polyphenols, enzyme kinetics were performed with designated concentrations of pNPG. The maximum velocity (Vmax) for α-glucosidase was calculated from the nonlinear regression curve with five different concentrations of substrate (Figure 2). To determine the inhibition modes, Lineweaver–Burk plots were constructed for each of the inhibition modes, and the most suitable mode was selected using SigmaPlot 10.0 software.
Meanwhile, the inhibitor constant Ki indicates the potency of an inhibitor and is expressed as the concentration required to produce half-maximal inhibition and is determined by a Dixon plot. The initial slope v was determined for each concentration of each polyphenol. The reciprocal velocity (1/v) versus the […] (for 0.25, 0.5, 1, and 2 mM pNPG) was plotted. A single regression line for each concentration of the substrate was obtained, and Ki was calculated from the intersection of the four lines.

[3] = target: T1, α-Glucosidase (from baker’s yeast); test: biochemical; remark: listed apart in the source
Method: Synergistic effects on α-glucosidase inhibition were measured using the same methods as above. […] We calculated the IC50 values of each polyphenol and the combinations, and we used the statistical differences of these values to assess synergistic effects.

[4] = pNPG 1 mM, pH 7.0, 37 °C, read-out: half-maximal inhibitory concentrations (IC50)
[5] = Substrate PNPG 0.125 mM, read-out: IC50
[6] = Substrate PNPG 0.25 mM, read-out: IC50
[7] = Substrate PNPG 0.5 mM, read-out: IC50
[8] = Substrate PNPG 1 mM, read-out: IC50

| Compound | IC50 [1, 4] [µM] | Ki [2] [µM] | Mode of Inhibition [2] | IC50 [3, 5] [µM] | IC50 [3, 6] [µM] | IC50 [3, 7] [µM] | IC50 [3, 8] [µM] | other results |
| --- | --- | --- | --- | --- | --- | --- | --- | --- |
| O=c1c2cc(O)ccc2oc2cc(O)cc(O)c12 [1,3,7-trihydroxyxanthone] | – | – | – | – | – | – | – | inhibition (α-glucosidase): approximately 15% |
| O=c1cc(-c2ccc(O)c(O)c2)oc2cc(O)cc(O)c12 [Luteolin, luteolin] | 11.9 ± 1.63 | 16.8 ± 9.6 | Mixed | 18.6 ± 1.2 | 14.82 ± 0.01 | 15.4 ± 1.99 | 19.5 ± 1.59 | – |
| C[C@H]1O[C@H](O[C@H]2[C@H](O)[C@@H](O)[C@@H](O[C@H]3[C@H](O)[C@@H](O)C(O)O[C@@H]3CO)O[C@@H]2CO)[C@H](O)[C@@H](O)[C@@H]1N[C@H]1C=C(CO)[C@@H](O)[C@H](O)[C@H]1O (some centres unmarked) [Acarbose, acarbose, reference compound] | – | – | Competitive | – | – | – | – | – |
| O=c1c(-c2ccc(O)cc2)coc2cc(O)ccc12 [Daidzein, daidzein] | – | – | Uncompetitive | – | – | – | – | IC50 [1]: 20.2 ± 6.17 µM; IC50 ([3]; IC50, Substrate PNPG 0.125 mM): 59.2 ± 6.1 µM; IC50 ([3]; IC50, Substrate PNPG 0.25 mM): 27.6 ± 2.93 µM; IC50 ([3]; IC50, Substrate PNPG 0.5 mM): 23.2 ± 1.04 µM; IC50 ([3]; IC50, Substrate PNPG 1 mM): 20.5 ± 1.82 µM |
| CC1(C)C=Cc2c(ccc3c2OC[C@@]2(O)c4ccc(O)cc4O[C@@H]32)O1 [Glyceollin, glyceollin] | 13.2 ± 2.31 | 19 ± 4.45 | Competitive | 16.6 ± 3.25 | 16.57 ± 0.15 | 19.1 ± 0.96 | 33.2 ± 3.97 | Mode of Inhibition ([2]; listed as glyceollin): competitive inhibition |
